Test systems include CCRF-CEM; COLO 205; HCT-15; HL-60; HOP-92; HT-29; IGROV-1; KM-20L2; LOX IMVI; Malme-3M; NCI-H226; NCI-H522; OVCAR-5; SK-MEL-2; SNB-75; SNB-78; U-251; BT-549; DU-145; Hs-578T.
Holding throughout (experiment): NCI anticancer screen, dose series, 48 h

Each structure is given as a SMILES string.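 Five concentrations, 48 hours, 96-well plates. GI50 is the concentration that inhibits growth by half.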 Calls of active or inactive are those of the source. Rule as the data show it: active = GI50 up to about 1.1 µM and inactive = higher.

With `COc1cc(C2C(Cl)C(=O)N2NC(=O)c2ccc(N)cc2)ccc1O` (configuration not stated), the GI50 with CCRF-CEM was 18.5 µM (inactive); in the assay with COLO 205 it was 20.8 µM (inactive); in the assay on HCT-15 it was 39.9 µM; in the assay with HL-60, 27.9 µM (inactive); with HOP-92 it was 25.5 µM (inactive); in the assay with HT-29, 23.4 µM (inactive). The GI50 in the assay on IGROV-1 was 56.8 µM (inactive); in the assay on KM-20L2, 63.7 µM (inactive); with LOX IMVI, 14.8 µM (inactive); in the assay with Malme-3M, 16.5 µM (inactive); in the assay on NCI-H226, 95.7 µM (inactive); in the assay with NCI-H522, 19.8 µM (inactive). The GI50 is 56.6 µM (inactive) with OVCAR-5; 59.8 µM (inactive) with SK-MEL-2; 75.5 µM (inactive) in the assay with SNB-75; 44.2 µM (inactive) in the assay with SNB-78; 18 µM (inactive) in the assay with U-251.
For `COc1cc(-c2[nH]ccc2Cl)oc1C1=C2N=C3C=C2C(C(C)C)C1CCCCCCCC3` (configuration not stated), the GI50 is 1.1 µM (active) with BT-549; 0.275 µM (active) in the assay with CCRF-CEM; 0.566 µM (active) with COLO 205; 0.614 µM (active) with DU-145; 0.678 µM in the assay on HCT-15; 0.299 µM (active) in the assay on HL-60. Further, the GI50 in the assay on HOP-92 is 1.69 µM (inactive); in the assay on HT-29 it was 0.252 µM (active); in the assay with Hs-578T, 0.253 µM (active); with IGROV-1, 0.993 µM (active); in the assay with KM-20L2, 0.308 µM (active); with LOX IMVI, 0.167 µM (active). Also, the GI50 in the assay on Malme-3M is 1.09 µM (active); with NCI-H226, 1.06 µM (active); with NCI-H522, 0.407 µM (active); with OVCAR-5 it was 0.735 µM (active); in the assay with SK-MEL-2, 0.483 µM (active); in the assay with SNB-75, 1.12 µM (inactive). Moreover, the GI50 is 2.83 µM (inactive) in the assay with SNB-78 and 0.711 µM (active) with U-251.
For `O=c1c(NO)c([N+](=O)[O-])cnn1-c1ccccc1`, the GI50 with BT-549 is 1.58 µM (inactive); in the assay with CCRF-CEM it was 0.971 µM (active); in the assay on COLO 205, 3.62 µM (inactive); in the assay on DU-145, 13.8 µM (inactive); in the assay with HCT-15, 4.78 µM; in the assay on HL-60, 0.789 µM (active). In addition, the GI50 with HOP-92 is 7.64 µM (inactive); with HT-29 it was 2.6 µM (inactive); in the assay with Hs-578T it was < 0.01 µM (active); in the assay on IGROV-1, 21.1 µM (inactive); with KM-20L2, 7.19 µM (inactive); in the assay with LOX IMVI, 1.79 µM (inactive). The GI50 in the assay on Malme-3M was 4.6 µM (inactive); in the assay on NCI-H226, 7.87 µM (inactive); in the assay with NCI-H522, 1.97 µM (inactive); with OVCAR-5 it was 7.28 µM (inactive); in the assay with SK-MEL-2, 14.9 µM (inactive); with SNB-75, 14.6 µM (inactive). Further, the results for the GI50 in the assay on SNB-78 and in the assay on U-251 were 16.9 µM (inactive) and 3.12 µM (inactive), respectively.
